Among the data in patent publication US7632857B2, “Histamine H3 receptor agents, preparation and therapeutic uses” (Eli Lilly and Company, priority 2004, dated 2009) are Ki values, retold here.

Each structure is given as a SMILES string.

The target in the experiment is T1, H3R (Homo sapiens, UniProt Q9Y5N1).
T1 construct: expressed in transfected cells; pcDNA3.1(+) vector, G418 selection)
In words: [35S] GTP γ [S] binding assay, antagonist activity in the presence of agonist. Format: biochemical. Conditions: membranes from H3R8-expressing HEK293 cell line; agonist R(−)alpha methylhistamine. On the procedure: Membranes isolated as described in (Preparation of Histamine Receptor Subtype Membranes) were used in a [35S]GTPχS functional assay. Binding of [35S]GTPχS to membranes indicates agonist activity. Compounds of the invention of Formula I or Formula II were tested for their ability to inhibit binding in the presence of agonists. Alternately, the same transfected cell lines were used for a cAMP assay wherein H3R agonists inhibited forskolin-activated synthesis of cAMP. Compounds of Formula I or Formula II were tested for their ability to permit forskolin-stimulated cAMP synthesis in the presence of agonist.
cDNA for the human histamine 3 receptor was cloned and expressed as described in (A. Preparation H1R membranes), above. Transfected cells were selected using G418 (500μ/ml), grown, and tested for histamine binding by the SPA described above. For total binding, cells were assayed in a SPA reaction described above containing 50 mM Tris-HCL (assay buffer), pH 7.6, 1 mg wheat germ agglutinin SPA beads (Amersham Pharmacia Biotech, #RPNQ0001), and 1 nM (3H)-n-alpha-methylhistamine (NEN, NET1027) (total volume per well=200 μl). Thioperimide was added to determine non-specific binding. […]
Antagonist activity of selected compounds was tested for inhibition of [35S] […] Plates were counted in Wallac Trilux 1450 Microbeta scintillation counter for 1 minute. […]
(In general: GTPγS is a poorly hydrolysed GTP analogue; its binding reports G protein activation.)

T1 sequence (Q9Y5N1 whole entry): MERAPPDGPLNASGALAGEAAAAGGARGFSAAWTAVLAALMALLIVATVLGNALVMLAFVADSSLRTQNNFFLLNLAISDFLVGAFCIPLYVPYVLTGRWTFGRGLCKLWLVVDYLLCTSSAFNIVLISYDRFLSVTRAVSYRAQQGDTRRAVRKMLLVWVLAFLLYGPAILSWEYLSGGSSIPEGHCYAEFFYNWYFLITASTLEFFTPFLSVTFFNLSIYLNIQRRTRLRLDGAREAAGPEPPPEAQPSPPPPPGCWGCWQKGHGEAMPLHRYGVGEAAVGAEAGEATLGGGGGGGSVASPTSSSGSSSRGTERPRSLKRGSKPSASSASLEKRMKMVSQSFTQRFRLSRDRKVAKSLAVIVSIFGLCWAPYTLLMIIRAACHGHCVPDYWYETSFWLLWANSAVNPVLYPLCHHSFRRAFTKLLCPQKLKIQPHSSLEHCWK

On to `O=C(c1ccc(-c2ccc(OCCN3CCCCC3)cc2)cc1)N1CCC[C@H]1CN1CCCC1`, for which the Ki is 32 nM.

As for `O=C(c1ccc(-c2ccccn2)cc1)N1CCC[C@H]1CN1CCCC1`, the Ki was determined as 4.9 nM.

For orientation: Ki means a measure of affinity in units of concentration, obtained from inhibition or displacement.
